Results from article PMC4279401 (Oncotarget, 2014).
Entries after “also recorded” stand apart in the source; their conditions may differ. Read-outs that look alike come from different tables or passages of the source. One block for each compound: values may come before it.

Columns and labels:
[1] = system: H3K27 methylation; assay: Western blot of histone methylation in MDA-MB231; format: cell-based; settings: Homo sapiens, MDA-MB-231, Fig. 4b, read-out: IC50 against H3K27 methylation
Description: (§1) 10^6 cells/well were incubated with increasing concentrations of a compound for 5 days and histones extracted with the EpiQuik™ Total Histone Extraction Kit (Epigentek) according to the manufacturer's protocol. Equal amounts of histones (2μg) were separated on SDS-PAGE and transferred to PVDF membranes. The blots were probed with primary antibodies, followed by anti-rabbit IgG (Thermo Scientific) secondary antibodies. For western blot analysis of MDA-MB231 xenograft tumors, tumors were harvested and frozen in liquid nitrogen. Histones were extracted and analyzed by immunoblotting as described above.

[2] = system: BT549; assay: Cell proliferation, MTT assay; format: cell-based; settings: Homo sapiens
[3] = system: MDA-MB231, BT549 and MCF-7 breast cancer cells; assay: Cell proliferation, MTT assay, DOT1L+ breast cancer cells; format: cell-based, Human; settings: for EC50: Homo sapiens
[4] = system: MDA-MB231; assay: Secondary mammosphere assay; format: cell-based, Human; settings: MDA-MB231, in words
Description: The protocol for mammosphere assay was performed using a published method. The numbers of secondary mammospheres in each well were counted using a Leica MZ12.5 microscope.

[5] = system: MDA-MB231 cells; assay: Cell cycle analysis, propidium iodide FACS; format: cell-based, Human
Description: (§2) For apoptosis and cell cycle analysis, 10^5 cells/well were incubated with increasing concentrations of a compound for 7 or 10 days. Apoptosis was determined using the FITC Annexin V Apoptosis Detection Kit I (BD Bioscience) according to the manufacturer's protocol. Cells for cell cycle analysis were fixed in cold 70% ethanol at 4°C and stained with Propidium iodide (Sigma-Aldrich) (20 μg/ml) and RNase A (10 μg/ml) for 30min. Cells were analyzed using a FACS Calibur (BD Biosciences/Applied Biosystems) and data were processed using the program Flowjo (version7.6.5).

[6] = system: H3K79 methylation; assay: Western blot of xenograft tumor tissues; format: in vivo, athymic nude mice; settings: day 14, Western blot, in words
Description: as §1
Female athymic nude mice (4 to 6 weeks old) were obtained from Charles River (Wilmington, MA, USA) and maintained under pathogen-free conditions. The use of athymic nude mice and their treatment were approved by the BCM Institutional Animal Care and Use Committee, and the experiments were conducted in strict compliance with the regulations. 2 ×10^6 MDA-MB-231 cells were injected into the upper right mammary fat pad of the recipient mouse and tumor growth and animal weights were monitored twice a week. The tumor volumes were calculated using the formula length × (width)^2/2. When the tumors reached a size of about 20–30 mm^3, mice were randomly segregated into control and treatment groups. […]

[7] = system: MDA-MB231 cells; assay: ALDEFLUOR assay; format: cell-based, Human; settings: in words
Description: (§3) 5 × 10^4 cells/well were incubated with compounds for 14 days. The ALDH activity of cells was determined by using the ALDEFLUOR assay kit (StemCell Technologies) according to the manufacturer's instructions. Combinations of fluorochrome-conjugated monoclonal antibodies against human CD44-FITC and CD24-PE were obtained from BD Biosciences. Primary antibodies or the respective isotype controls (BD Biosciences) were added to the cell suspension, according to the manufacturer's recommendation, and incubated at 4°C for 20 min. Dead cells were eliminated using propidium iodide (Sigma). The labelled cells were analyzed on a FACS Calibur (BD Biosciences/Applied Biosystems).

[8] = system: MDA-MB231 cells; assay: CD44/CD24 flow cytometry; format: cell-based, Human; settings: MDA-MB231, FACS, in words
Description: as §3

[9] = system: methylation at H3K4, H3K9, H3K27, H3K36 and H4K20; assay: Western blot of methylation at other histone lysines in MDA-MB231; format: cell-based, Human; settings: at concentrations of <1 μM, in words
Description: as §1

[10] = system: MDA-MB231; assay: Transwell cell migration assay; format: cell-based, Human; settings: for cell migration and invasion: MDA-MB231, Transwell with and without Matrigel, in words
Description: (§4) 5 × 10^4 cells/well were incubated with compounds for 14 days. For transwell migration assays, 5× 10^4 cells were plated in the top chamber with the non-coated membrane (24-well insert; pore size, […]; BD Biosciences). For invasion assays, 5× 10^4 cells were plated in the top chamber with Matrigel-coated membrane. The cells on the apical side of each insert were then scraped off after 22 h for both assays. The wells were washed with PBS, fixed with 100% methanol and stained with DAPI. Cells that had migrated to the basal side of the membrane were visualized and counted with a Nikon Eclipse TE2000-U microscope at 10×. Pictures of three random fields were obtained and the number of cells that had migrated quantified using ImageJ analysis software.

[11] = system: MCF-7; assay: Cell proliferation, MTT assay; format: cell-based; settings: Homo sapiens
[12] = system: MDA-MB231; assay: Cell proliferation, MTT assay; format: cell-based; settings: Homo sapiens
[13] = biological target: SAHH; settings: read-out: Ki against SAHH; cited from earlier work
[14] = system: H3K79 methylation; assay: Western blot of histone methylation in MDA-MB231; format: cell-based, Human; settings: for IC50: Homo sapiens, MDA-MB-231, read-out: IC50 of H3K79 methylation inhibition
Description: (§5) Human cell lines BT549, MDA-MB231, MCF-7, MDA-MB157, HCC70, A549 and NB4 were obtained from the American Type Culture Collection (ATCC) and cultured using ATCC recommended conditions. Primary antibodies against H3K79me2, H3K27me3, H3K4me3, H3K36me2, H4K20me3, H3K9me-pan were purchased from Cell Signaling (Danvers, MA). siRNA experiments were performed by transfecting MDA-MB-231 cells with X-tremeGENE Transfection Reagent (Roche) and 10 nM siRNA (Invitrogen), according to the manufacturer's protocol.
as §1

[15] = Toxicity in treated mice; format: in vivo
Description: (§6) Female athymic nude mice (4 to 6 weeks old) were obtained from Charles River (Wilmington, MA, USA) and maintained under pathogen-free conditions. The use of athymic nude mice and their treatment were approved by the BCM Institutional Animal Care and Use Committee, and the experiments were conducted in strict compliance with the regulations. 2 ×10^6 MDA-MB-231 cells were injected into the upper right mammary fat pad of the recipient mouse and tumor growth and animal weights were monitored twice a week. The tumor volumes were calculated using the formula length × (width)^2/2. When the tumors reached a size of about 20–30 mm^3, mice were randomly segregated into control and treatment groups. Mice in the treatment group were implanted subcutaneously an osmotic pumps (Alzet model 2004) containing 2.8 mg of 3 in 200 μL of PBS. Animals were sacrificed when the volumes of tumors reaching ~1.5 cm^3. Log-rank analysis was used to determine statistical significance of the survival curves using Prism 5.0 (GraphPad).

[16] = system: MDA-MB231 xenograft; assay: MDA-MB231 xenograft mouse model; format: in vivo, athymic nude mice; settings: 4 mg/kg/day for 28 days
Description: as §6

[17] = system: MDA-MB231 cells; assay: Apoptosis, Annexin V FACS; format: cell-based, Human; settings: 20 nM, day 7
Description: as §2

[18] = system: H3K79 methylation; assay: Western blot of histone methylation in MCF-7; format: cell-based, Human; settings: MCF-7, Western blot, in words
Description: as §5, §1

[19] = system: MDA-MB157; assay: Cell proliferation, MTT assay; format: cell-based; settings: Homo sapiens, read-out: Anti-proliferative activity EC50
[20] = system: NB4; assay: Cell proliferation, MTT assay; format: cell-based; settings: Homo sapiens, read-out: Anti-proliferative activity EC50
[21] = system: five breast cancer cell lines, lung cancer A549 and non-MLL leukemia NB4 cells; assay: Cell proliferation, MTT assay, whole panel; format: cell-based; settings: Homo sapiens, 72 h; 3-day treatment, all seven cell lines; read-out: EC50 against all of these cells
[22] = system: MDA-MB157 and HCC70 as well as A549 and NB4; settings: in words
[23] = system: MDA-MB231 cells; assay: Microarray gene set enrichment analysis; format: cell-based, Human; settings: 1 at 5 μM, 2 at 10 μM, in words
Description: 10^5 cells/well were incubated with compounds for 14 days. Cells were lysed immediately in TRIzol® Reagent, frozen in liquid nitrogen, and shipped to Asuragen, Inc. (Austin, TX) for microarray experiments. RNA was isolated, amplified, and hybridized to Illumina Human HT-12 v4 arrays according to the manufacturer's protocol. Microarray data were log2 transformed and then normalized to have the same median for all the arrays. Moderate t-statistics were used to test if genes were differentially expressed between the groups of interest. Benjamini and Hochberg method was used to correct for multiple comparisons. R and Bioconductor packages were used for all the statistical analyses (http://cran.us.r-project.org/, http://www.bioconductor.org/). Gene set enrichment analysis was performed using GSEA software from Broad Institute (Boston, MA).

[24] = system: MDA-MB231; assay: Matrigel invasion assay; format: cell-based, Human
Description: as §4

[25] = system: A549; assay: Cell proliferation, MTT assay; format: cell-based, Human; settings: for EC50: Homo sapiens, read-out: Anti-proliferative activity EC50
[26] = in words; cited from earlier work
[27] = system: HCC70; assay: Cell proliferation, MTT assay; format: cell-based; settings: Homo sapiens, read-out: Anti-proliferative activity EC50
[28] = BT-549, 72 h, BT549, 3-day treatment, read-out: Anti-proliferative activity EC50
[29] = MCF7, 72 h, MCF-7, 3-day treatment, read-out: Anti-proliferative activity EC50
[30] = MDA-MB-231, 72 h, MDA-MB231, 3-day treatment, read-out: Anti-proliferative activity EC50

Compound: Nc1ncnc2c1ncn2[C@@H]1C=C(CO)[C@@H](O)[C@H]1O [Compound 3, neplanocin A]
IC50 [1]: > 6000 nM
EC50 [2, 28]: 2600 nM
EC50 ([2]; BT-549, 360 h, BT549, 15-day, read-out: EC50, 15-day treatment): 29 nM
EC50 ([3]; 72 h, three DOT1L+ breast cancer cells, 3-day, read-out: EC50, 3-day treatment): 900 to 2600 nM
times more active in 15-day than in the corresponding 3-day data ([3]; MDA-MB231, BT549, MCF-7): 18 - 100 ×
secondary mammosphere formation [4]: more pronounced activity; also recorded: inhibited secondary mammosphere formation
sub-G1 phase cell population ([5]; MDA-MB231, in words): increased sub-G1 population
sub-G phase cell population after treatment ([5]; MDA-MB231, control 4.4%): 21.2%
H3K79 methylation in tumor tissues [6]: only significantly reduced H3K79 methylation levels; also recorded: only H3K79 methylation was significantly inhibited
ALDH+ cell population [7]: decreased; also recorded: reduced
CD44+/CD24− cell population [8]: reduced; also recorded: decreased
cell population expressing high levels of CD24 [8]: significantly expanded; also recorded: increased cell population expressing high levels of CD24
inhibitory activity against methylation at H3K4, H3K9, H3K27, H3K36 and H4K20 [9]: no or negligible inhibitory activities; also recorded: negligible effects
cell migration and invasion [10]: more pronounced activity; also recorded: reduced cell migration and invasiveness
EC50 [11, 29]: 910 nM
EC50 ([11]; MCF7, 360 h, MCF-7, 15-day, read-out: EC50, 15-day treatment): 51 nM
EC50 [12, 30]: 930 nM
EC50 ([12]; MDA-MB-231, 360 h, MDA-MB231, 15-day, read-out: EC50, 15-day treatment): 9 nM
Ki [13]: 8.4 nM
IC50 [14]: ~50 nM
toxicities ([15]; 4 mg/kg/day for 28 days, in words): no obvious toxicities
changes in blood cell counts, hemoglobin and body weight ([15]; 4 mg/kg/day, day 28, in words): did not cause significant changes; also recorded: no significant changes
animal survival ([16]; in words): significantly prolonged animal survivals
tumor growth ([16]; in words): significantly inhibited
tumor growth inhibition ([16]; subcutaneous osmotic pump): > 95%
tumors exhibiting regression during the treatment ([16]; remained 1-3 mm in diameter): Four tumors (out of nine)
apoptosis of MDA-MB231 cells [17]: 12.1%

EC50 [2, 28]: 29000 nM
EC50 ([2]; BT-549, 360 h, BT549, 15-day treatment, read-out: Anti-proliferative activity EC50): 710 nM
EC50 ([3]; 360 h, 15-day treatment, MDA-MB231, BT549, MCF-7, read-out: EC50 against proliferation): 190 to 1400 nM
EC50 ([3]; 360 h, DOT1L+ breast cancer cells, 15-day, read-out: anti-proliferation EC50): ≥ 190 nM
EC50 ([19]; MDA-MB-157, 72 h, MDA-MB157, 3-day treatment): > 50000 nM
EC50 ([19]; MDA-MB-157, 360 h, MDA-MB157, 15-day treatment): 27000 nM
EC50 [21]: ≥ 15000 nM
EC50 [11, 29]: 15000 nM
EC50 ([11]; MCF7, 360 h, MCF-7, 15-day treatment, read-out: Anti-proliferative activity EC50): 950 nM
EC50 [12, 30]: 45000 nM
EC50 ([12]; MDA-MB-231, 360 h, MDA-MB231, 15-day treatment, read-out: Anti-proliferative activity EC50): 190 nM
EC50 ([25]; 72 h, A549, 3-day treatment): 19000 nM
EC50 ([25]; 360 h, A549, 15-day treatment): 20000 nM
IC50 [14]: ~50 nM
Compound: CC(C)N(CCCNC(=O)Nc1ccc(C(C)(C)C)cc1)C[C@H]1O[C@@H](n2ccc3c(N)ncnc32)[C@H](O)[C@@H]1O [Compound 1, EPZ004777]
effect on H3K79 methylation [18]: significantly reduced H3K79 methylation; also recorded: considerably reduced H3K79 methylation
EC50 ([20]; NB-4, 72 h, NB4, 3-day treatment): 21000 nM
EC50 ([20]; NB-4, 360 h, NB4, 15-day treatment): 22000 nM
ALDH+ cell population [7]: considerably reduced
CD44+/CD24− cell population [8]: significantly decreased
cell population expressing high levels of CD24 [8]: considerably more cells expressed higher levels of CD24; also recorded: increased cell population
inhibition of cell migration ([10]; MDA-MB231, Transwell): ~ 50%
cell migration and invasion [10]: reduced abilities of cell migration and invasion
activity against DOT1L−/low breast or non-breast cancer cells [22]: inactive
genes whose expression is low in breast CSCs (GSEA) [23]: upregulation
pro-proliferation genes in the PAM50 gene set (GSEA) [23]: downregulation
inhibition of Matrigel invasion [24]: ~25%
activity against A549 cells ([25]; in words): negligible activity
effect on H3K79 methylation ([14]; in words): only inhibited H3K79 methylation
pharmacokinetics [26]: poor pharmacokinetics with short plasma half-lives
EC50 ([27]; 72 h, HCC70, 3-day treatment): 20000 nM
EC50 ([27]; 360 h, HCC70, 15-day treatment): 12000 nM
